Data: PubChem BioAssay AID504934 (The Scripps Research Institute Molecular Screening Center, 2011)
The source made the active and inactive calls. How the calls were made is not given here.

Legend:
Test in all cases: PubChem AID 504934
[1] = system: LXRa; settings: nuclear receptor panel Gal4 luciferase reporter, at 10 µM
[2] = target: Steroidogenic factor 1 (Homo sapiens) (UniProt Q13285); settings: nuclear receptor panel Gal4 luciferase reporter, SF1, at 10 µM
[3] = target: Hepatocyte nuclear factor 4-alpha (Homo sapiens) (UniProt P41235); settings: nuclear receptor panel Gal4 luciferase reporter, HNF4a, at 10 µM
Hepatocyte nuclear factor 4-alpha (Homo sapiens), sequence (P41235 whole entry, looked up, the tested form may be a part): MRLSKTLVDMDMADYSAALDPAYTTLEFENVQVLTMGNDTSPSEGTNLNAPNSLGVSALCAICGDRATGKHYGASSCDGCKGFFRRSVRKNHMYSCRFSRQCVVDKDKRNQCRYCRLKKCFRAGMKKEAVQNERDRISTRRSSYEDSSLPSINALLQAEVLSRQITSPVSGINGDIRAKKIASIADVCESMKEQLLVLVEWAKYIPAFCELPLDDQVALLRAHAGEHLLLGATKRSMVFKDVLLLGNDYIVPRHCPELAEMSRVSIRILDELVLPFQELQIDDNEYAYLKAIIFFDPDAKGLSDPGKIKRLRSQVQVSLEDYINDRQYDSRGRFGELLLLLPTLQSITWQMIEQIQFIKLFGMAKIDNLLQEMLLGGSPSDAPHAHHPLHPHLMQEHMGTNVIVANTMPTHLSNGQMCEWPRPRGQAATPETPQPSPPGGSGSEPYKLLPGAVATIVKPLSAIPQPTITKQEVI

[4] = target: Oxysterols receptor LXR-beta (Homo sapiens) (UniProt P55055); settings: nuclear receptor panel Gal4 luciferase reporter, LXRb, at 10 µM
Oxysterols receptor LXR-beta (Homo sapiens), sequence (P55055 whole entry, looked up, the tested form may be a part): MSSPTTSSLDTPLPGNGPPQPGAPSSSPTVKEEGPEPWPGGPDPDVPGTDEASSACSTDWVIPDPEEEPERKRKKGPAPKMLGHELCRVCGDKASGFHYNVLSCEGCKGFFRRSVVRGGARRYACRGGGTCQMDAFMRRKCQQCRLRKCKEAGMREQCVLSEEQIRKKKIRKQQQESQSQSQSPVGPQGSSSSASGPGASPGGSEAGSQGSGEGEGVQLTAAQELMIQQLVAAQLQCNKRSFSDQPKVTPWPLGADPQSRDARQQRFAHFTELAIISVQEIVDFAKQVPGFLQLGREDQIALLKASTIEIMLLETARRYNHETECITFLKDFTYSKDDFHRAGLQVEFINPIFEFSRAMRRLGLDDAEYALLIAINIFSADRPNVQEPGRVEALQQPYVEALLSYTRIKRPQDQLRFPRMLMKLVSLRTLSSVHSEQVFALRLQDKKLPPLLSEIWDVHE

[5] = system: EAR-2 (COUP-TF3); settings: nuclear receptor panel Gal4 luciferase reporter, at 10 µM
[6] = system: pBIND-1; settings: nuclear receptor panel Gal4 luciferase reporter, at 10 µM
[7] = system: ERRa; settings: nuclear receptor panel Gal4 luciferase reporter, at 10 µM
[8] = system: HNF4g; settings: nuclear receptor panel Gal4 luciferase reporter, at 10 µM
[9] = target: Retinoic acid receptor alpha (Homo sapiens) (UniProt P10276); settings: nuclear receptor panel Gal4 luciferase reporter, RARa, at 10 µM
Retinoic acid receptor alpha (Homo sapiens), sequence (P10276 whole entry, looked up, the tested form may be a part): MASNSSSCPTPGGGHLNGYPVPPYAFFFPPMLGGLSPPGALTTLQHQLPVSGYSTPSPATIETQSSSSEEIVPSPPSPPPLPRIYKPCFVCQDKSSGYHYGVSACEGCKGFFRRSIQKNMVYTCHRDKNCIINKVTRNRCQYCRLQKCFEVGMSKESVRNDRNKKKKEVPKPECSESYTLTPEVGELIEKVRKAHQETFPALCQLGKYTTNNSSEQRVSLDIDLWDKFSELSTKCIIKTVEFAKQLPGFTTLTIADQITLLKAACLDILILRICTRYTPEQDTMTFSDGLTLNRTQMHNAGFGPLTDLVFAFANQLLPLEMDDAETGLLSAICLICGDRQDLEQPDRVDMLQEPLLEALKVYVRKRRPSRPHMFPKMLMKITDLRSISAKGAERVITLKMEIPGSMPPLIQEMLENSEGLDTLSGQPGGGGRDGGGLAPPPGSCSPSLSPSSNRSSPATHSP

[10] = system: ERRg; settings: nuclear receptor panel Gal4 luciferase reporter, at 10 µM
[11] = system: CAR; settings: nuclear receptor panel Gal4 luciferase reporter, at 10 µM
[12] = system: Coup-TF1; settings: nuclear receptor panel Gal4 luciferase reporter, at 10 µM
[13] = target: Nuclear receptor ROR-gamma (Homo sapiens) (UniProt P51449); settings: nuclear receptor panel Gal4 luciferase reporter, RORg, at 10 µM
Nuclear receptor ROR-gamma (Homo sapiens), sequence (P51449 whole entry, looked up, the tested form may be a part): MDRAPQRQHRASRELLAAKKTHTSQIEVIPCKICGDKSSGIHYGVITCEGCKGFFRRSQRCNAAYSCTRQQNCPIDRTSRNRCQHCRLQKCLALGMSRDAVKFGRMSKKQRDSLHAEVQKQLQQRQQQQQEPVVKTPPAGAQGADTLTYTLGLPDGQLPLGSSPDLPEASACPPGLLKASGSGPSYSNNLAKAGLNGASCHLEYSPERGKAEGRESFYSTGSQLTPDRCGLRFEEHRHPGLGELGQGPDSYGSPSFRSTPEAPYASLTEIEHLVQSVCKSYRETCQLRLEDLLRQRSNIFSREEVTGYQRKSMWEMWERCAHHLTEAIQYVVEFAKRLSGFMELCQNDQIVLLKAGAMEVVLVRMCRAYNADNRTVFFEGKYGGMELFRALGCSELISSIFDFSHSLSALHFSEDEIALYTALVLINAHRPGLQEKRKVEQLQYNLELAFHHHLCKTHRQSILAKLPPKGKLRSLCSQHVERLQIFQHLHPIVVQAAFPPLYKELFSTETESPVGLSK

[14] = system: TLX; settings: nuclear receptor panel Gal4 luciferase reporter, at 10 µM
[15] = target: Nuclear receptor subfamily 5 group A member 2 (Homo sapiens) (UniProt O00482); settings: nuclear receptor panel Gal4 luciferase reporter, LRH1, at 10 µM
Nuclear receptor subfamily 5 group A member 2 (Homo sapiens), sequence (O00482 whole entry, looked up, the tested form may be a part): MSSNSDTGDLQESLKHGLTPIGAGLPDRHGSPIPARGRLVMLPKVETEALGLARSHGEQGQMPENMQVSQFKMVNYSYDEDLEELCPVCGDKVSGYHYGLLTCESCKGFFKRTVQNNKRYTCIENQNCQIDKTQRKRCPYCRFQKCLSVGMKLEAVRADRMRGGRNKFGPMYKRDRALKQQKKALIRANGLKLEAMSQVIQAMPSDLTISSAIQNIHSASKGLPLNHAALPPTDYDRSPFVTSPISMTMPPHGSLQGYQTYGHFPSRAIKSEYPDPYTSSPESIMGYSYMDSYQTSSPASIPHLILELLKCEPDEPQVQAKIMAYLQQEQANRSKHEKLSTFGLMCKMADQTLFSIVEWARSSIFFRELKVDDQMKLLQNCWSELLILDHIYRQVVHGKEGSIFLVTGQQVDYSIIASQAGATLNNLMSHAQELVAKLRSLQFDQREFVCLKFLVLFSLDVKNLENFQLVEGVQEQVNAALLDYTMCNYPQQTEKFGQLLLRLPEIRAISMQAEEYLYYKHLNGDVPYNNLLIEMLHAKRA

[16] = system: PPARd; settings: nuclear receptor panel Gal4 luciferase reporter, at 10 µM
[17] = system: NOR1; settings: nuclear receptor panel Gal4 luciferase reporter, at 10 µM
[18] = system: THRb; settings: nuclear receptor panel Gal4 luciferase reporter, at 10 µM
[19] = system: PGR; settings: nuclear receptor panel Gal4 luciferase reporter, at 10 µM
[20] = system: Rev-erb b; settings: nuclear receptor panel Gal4 luciferase reporter, at 10 µM
[21] = target: Retinoic acid receptor RXR-beta (Homo sapiens) (UniProt P28702); settings: nuclear receptor panel Gal4 luciferase reporter, RXRb, at 10 µM
Retinoic acid receptor RXR-beta (Homo sapiens), sequence (P28702 whole entry, looked up, the tested form may be a part): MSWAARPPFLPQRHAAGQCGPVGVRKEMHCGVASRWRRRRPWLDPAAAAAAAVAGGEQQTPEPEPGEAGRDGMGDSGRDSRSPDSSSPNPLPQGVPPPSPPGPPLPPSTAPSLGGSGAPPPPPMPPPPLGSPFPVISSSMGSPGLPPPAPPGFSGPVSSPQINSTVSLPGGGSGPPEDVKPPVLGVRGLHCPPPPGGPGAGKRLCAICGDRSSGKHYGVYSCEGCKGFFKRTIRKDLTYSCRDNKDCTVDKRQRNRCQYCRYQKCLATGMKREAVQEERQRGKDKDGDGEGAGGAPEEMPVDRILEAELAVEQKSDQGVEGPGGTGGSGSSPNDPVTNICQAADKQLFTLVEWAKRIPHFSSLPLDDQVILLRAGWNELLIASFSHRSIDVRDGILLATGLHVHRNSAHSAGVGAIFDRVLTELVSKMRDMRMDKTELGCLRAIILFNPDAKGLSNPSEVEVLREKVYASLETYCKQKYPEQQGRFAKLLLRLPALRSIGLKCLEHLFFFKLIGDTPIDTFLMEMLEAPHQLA

[22] = target: Peroxisome proliferator-activated receptor alpha (Homo sapiens) (UniProt Q07869); settings: nuclear receptor panel Gal4 luciferase reporter, PPARa, at 10 µM
Peroxisome proliferator-activated receptor alpha (Homo sapiens), sequence (Q07869 whole entry, looked up, the tested form may be a part): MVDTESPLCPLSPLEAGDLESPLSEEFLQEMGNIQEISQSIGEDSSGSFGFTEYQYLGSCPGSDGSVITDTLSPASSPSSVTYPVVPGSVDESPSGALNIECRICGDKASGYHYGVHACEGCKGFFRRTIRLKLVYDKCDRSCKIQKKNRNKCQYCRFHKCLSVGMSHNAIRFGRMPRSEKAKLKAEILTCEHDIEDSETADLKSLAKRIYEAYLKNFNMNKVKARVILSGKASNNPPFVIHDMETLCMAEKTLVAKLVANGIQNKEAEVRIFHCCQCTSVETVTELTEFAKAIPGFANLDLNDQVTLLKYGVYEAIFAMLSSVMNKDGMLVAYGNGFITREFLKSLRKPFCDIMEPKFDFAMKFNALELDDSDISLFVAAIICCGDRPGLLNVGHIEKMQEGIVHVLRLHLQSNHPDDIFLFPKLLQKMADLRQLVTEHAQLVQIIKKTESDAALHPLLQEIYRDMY

Steroidogenic factor 1 (Homo sapiens), sequence (Q13285 whole entry, looked up, the tested form may be a part): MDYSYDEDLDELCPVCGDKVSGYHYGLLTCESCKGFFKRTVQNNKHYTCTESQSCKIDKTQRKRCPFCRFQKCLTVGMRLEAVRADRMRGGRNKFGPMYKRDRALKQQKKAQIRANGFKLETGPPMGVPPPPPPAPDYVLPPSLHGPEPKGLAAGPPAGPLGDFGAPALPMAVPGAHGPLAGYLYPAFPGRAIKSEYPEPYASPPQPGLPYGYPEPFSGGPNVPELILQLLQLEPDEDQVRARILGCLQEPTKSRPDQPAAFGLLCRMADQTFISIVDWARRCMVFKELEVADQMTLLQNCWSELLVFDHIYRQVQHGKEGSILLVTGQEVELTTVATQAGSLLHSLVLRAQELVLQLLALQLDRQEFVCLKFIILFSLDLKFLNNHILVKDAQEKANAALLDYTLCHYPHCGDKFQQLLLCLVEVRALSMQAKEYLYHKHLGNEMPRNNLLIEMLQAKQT

With `O=c1cc(N2CCN(c3cccc(Cl)c3)CC2)[nH]c(=O)n1C1CCCCC1` the fold change [1] was 1.27, the fold change [2] was 0.71 and the fold change [3] was 0.61. The fold change [4] was 1.9 (inactive), the fold change [5] was 1 (inactive) and the fold change [6] was 1.28. The fold change [7] was 1.34, the fold change [8] was 0.44 and the fold change [9] was 0.47. For the same compound, the fold change [10] was 0.49, the fold change [11] was 0.38 and the fold change [12] was 0.72. The fold change [13] was 0.52, the fold change [14] was 0.88 (inactive) and the fold change [15] was 0.88 (inactive). For the same compound, the fold change [16] was 1.54, the fold change [17] was 0.87 (inactive) and the fold change [18] was 1.06 (inactive). For the same compound, the fold change [19] was 0.97 (inactive), the fold change [20] was 0.69 and the fold change [21] was 0.78. The fold change [22] was 1.11 (inactive).
